Test results published in BindingDB's records for doi:10.1016/s0960-894x(98)00253-4 (San Francisco State University, 1999).

Biological target: T1, Gamma-glutamyl hydrolase (Homo sapiens, UniProt Q92820)
T1 sequence (Q92820 whole entry): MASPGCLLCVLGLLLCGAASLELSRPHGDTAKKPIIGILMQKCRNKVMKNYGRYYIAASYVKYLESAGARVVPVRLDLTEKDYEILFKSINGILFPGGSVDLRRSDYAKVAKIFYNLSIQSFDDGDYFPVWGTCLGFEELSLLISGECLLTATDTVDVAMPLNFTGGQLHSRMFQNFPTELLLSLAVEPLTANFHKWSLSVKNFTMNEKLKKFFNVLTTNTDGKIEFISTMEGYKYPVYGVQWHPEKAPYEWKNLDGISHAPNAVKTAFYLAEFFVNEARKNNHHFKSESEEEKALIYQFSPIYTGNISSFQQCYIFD
Experiment: ChEBML_68750
Details: read-out: kon (M-1-s-1)
Experimental: Compound was tested for inhibitory potency against gamma-Glutamyl Hydrolase.

For `COP(=O)(N[C@@H](CCC(=O)O)C(=O)O)c1ccccc1` (some centres not stated), the kon was 4400 M⁻¹ s⁻¹.

`COP(=O)(N[C@@H](CCC(=O)O)C(=O)O)OC` was tested, and the kon was 177000 M⁻¹ s⁻¹.
